biological target: T1, CXCR3 (Homo sapiens, UniProt P49682); experiment: CXCR3 cAMP agonist assay (cAMP Hunter CHOK1 CXCR3 Gi cell line, forskolin-stimulated, HitHunter cAMP detection); format: cell-based; conditions: cAMP Hunter CHOK1 CXCR3 Gi cells, 20 μM forskolin, 30 minutes; read-out: Activity (CXCR3 cAMP agonist assay compound EC50)
T1 construct: host or cells: CHO-K1 (cAMP Hunter CHOK1 CXCR3 Gi cell line)
T1 sequence (P49682 1-368): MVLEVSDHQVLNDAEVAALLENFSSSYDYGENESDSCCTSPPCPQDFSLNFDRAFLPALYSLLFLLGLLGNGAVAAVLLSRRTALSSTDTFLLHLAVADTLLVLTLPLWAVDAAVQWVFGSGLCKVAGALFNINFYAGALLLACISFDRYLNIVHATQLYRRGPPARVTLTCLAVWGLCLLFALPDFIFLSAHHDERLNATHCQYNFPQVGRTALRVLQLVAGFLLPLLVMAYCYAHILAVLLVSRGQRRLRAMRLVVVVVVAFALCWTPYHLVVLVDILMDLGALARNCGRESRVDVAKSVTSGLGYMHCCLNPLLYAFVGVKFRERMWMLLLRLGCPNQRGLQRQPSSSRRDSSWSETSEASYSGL
Method: The cAMP Hunter™ CHOK1 CXCR3 Gi cell line was purchased from DiscoveRx. Cells were seeded into a 96-well white assay plate at 50,000 cells/well/94 μl assay buffer (Hank's Buffered Saline Solution, 10 mM HEPES, 0.1% fatty acid-free BSA, pH 7.4) and immediately assayed in suspension. Forskolin was added to 20 μM (5 μl of 400 μM stock) simultaneously with a 12-point dose response curve of compound at 0-10 μM (1 μl of 100× stock in 100% DMSO), and cells were incubated for 30 minutes. A cAMP standard curve is run as an assay control. A CXCL11 dose response was included to determine maximum efficacy. Direct detection of cAMP was carried out using the DiscoveRx HitHunter cAMP kit according to manufacturer's instructions, and luminescence was read using a SpectraMax M5 plate reader.

| Structure (SMILES) | EC50 |
| --- | --- |
| NCC[C@H](NC(=O)[C@@H]1Cc2ccccc2CN1C(=O)CCC(=O)c1ccccc1)C(=O)Nc1cc(Cl)cc(Cl)c1 [Compound 2-17] | 50 to 250 nM |
| Cc1cc(NC(=O)[C@H](CCN)NC(=O)[C@@H]2Cc3ccccc3CN2C(=O)CCC(=O)c2ccccc2)ccc1C(F)(F)F [Compound 2-27] | 50 to 250 nM |
| Cc1ccc(NC(=O)[C@H](CCCCN)NC(=O)[C@@H]2Cc3ccccc3CN2C(=O)CCC(=O)c2ccccc2)cc1 [Compound 1-3] | 50 to 250 nM |
| Cc1ccc(NC(=O)[C@H](CCCCN)NC(=O)[C@@H]2Cc3ccccc3CN2C(=O)CCC(=O)c2ccccc2)cc1Cl [Compound 1-27] | < 50 nM |
| Cc1cc(NC(=O)[C@H](CCN)NC(=O)[C@@H]2Cc3ccccc3CN2C(=O)CCC(=O)N2C3CCC2CN(C)C3)ccc1Cl [Compound 12-105] | > 500 nM |
| COc1c(NC(=O)[C@H](CCN)NC(=O)[C@@H]2Cc3ccccc3CN2C(=O)CCC(=O)c2ccccc2)ccc(C)c1C [Compound 2-61] | > 500 nM |
| Cc1c(F)cc(NC(=O)[C@H](CCN)NC(=O)[C@@H]2Cc3ccccc3CN2C(=O)CCC(=O)c2ccccc2)cc1Cl [Compound 4-19] | < 50 nM |
| NCCCC[C@H](NC(=O)[C@@H]1Cc2ccccc2CN1C(=O)CCC(=O)c1ccccc1)C(=O)Nc1ccc(C(F)(F)F)c(Cl)c1 [Compound 1-22] | 250 to 500 nM |
| Cc1cc(NC(=O)[C@H](CCCCN)NC(=O)[C@@H]2Cc3ccccc3CN2C(=O)CCC(=O)c2ccccc2)cnc1C [Compound 1-34] | < 50 nM |
| NCC[C@H](NC(=O)[C@@H]1Cc2ccccc2CN1C(=O)CCC(=O)c1ccccc1)C(=O)Nc1cccc2c1CCC2 [Compound 2-67] | < 50 nM |
| NCC[C@H](NC(=O)[C@@H]1Cc2ccccc2CN1C(=O)CCC(=O)c1ccccc1)C(=O)Nc1cc(Cl)c(Cl)cc1O (racemic) [Compound 4-13] | 50 to 250 nM |
| Cc1cc(NC(=O)[C@H](Cc2cnc(N)nc2)NC(=O)[C@@H]2Cc3ccccc3CN2C(=O)CCC(=O)c2ccccc2)ccc1Cl [Compound 3-14] | 250 to 500 nM |
| NCC[C@H](NC(=O)[C@@H]1Cc2ccccc2CN1C(=O)CCC(=O)c1ccccc1)C(=O)Nc1ccc(C(F)(F)F)c(Cl)c1 [Compound 2-13] | > 500 nM |
| Cc1ccc(NC(=O)[C@H](CCCCN)NC(=O)[C@@H]2Cc3ccccc3CN2C(=O)CCC(=O)c2ccccc2)cc1C [Compound 1-29] | < 50 nM |
| Cc1cc(NC(=O)[C@H](CCN2CCCCC2)NC(=O)[C@@H]2Cc3ccccc3CN2C(=O)CCC(=O)c2ccccc2)ccc1Cl [Compound 3-9] | < 50 nM |
| Cc1cc(NC(=O)[C@H](CCCCN)NC(=O)[C@@H]2Cc3ccccc3CN2C(=O)CCC(=O)c2ccccc2)ccc1C(F)(F)F [Compound 1-28] | 50 to 250 nM |
| NCC[C@H](NC(=O)[C@@H]1Cc2ccccc2CN1C(=O)CCC(=O)c1ccccc1)C(=O)Nc1ccc2ccncc2c1 [Compound 2-42] | > 500 nM |
| CN1Cc2ccc(NC(=O)[C@H](CCN)NC(=O)[C@@H]3Cc4ccccc4CN3C(=O)CCC(=O)c3ccccc3)cc2C1 [Compound 2-82] | < 50 nM |

Continued, values first:

| EC50 | Structure (SMILES) |
| --- | --- |
| < 50 nM | Cc1cc(NC(=O)[C@@H](CCN)NC(=O)[C@@H]2Cc3ccccc3CN2C(=O)CCC(=O)N2CCCOCC2)ccc1Cl [Compound 12-21] |
| < 50 nM | NC12CC(CC(NC(=O)[C@@H]3Cc4ccccc4CN3C(=O)CCC(=O)c3ccccc3)C(=O)Nc3ccc(Cl)c(Cl)c3F)(C1)C2 (mixture of isomers) [Compound 22-3] |
| 250 to 500 nM | CC(C)(C)C1CCCCN1C(=O)CCC(=O)N1Cc2ccccc2C[C@H]1C(=O)N[C@@H](CCN)C(=O)Nc1ccc(Cl)c(Cl)c1F (some centres unmarked) [Compound 15-32] |
| 250 to 500 nM | [N-]=[N+]=NCC[C@H](NC(=O)[C@@H]1Cc2ccccc2CN1C(=O)CCC(=O)c1ccccc1)C(=O)Nc1ccc(Cl)c(Cl)c1F [Compound 14-22, (S)—N—((S)-4-azido-1-((3,4-dichloro-2-fluorophenyl)amino)-1-oxobutan-2-yl)-2-(4-oxo-4-phenylbutanoyl)-1,2,3,4-tetrahydroisoquinoline-3-carboxamide] |
| < 50 nM | Cc1cc(NC(=O)[C@H](CCN)NC(=O)[C@@H]2Cc3ccccc3CN2C(=O)CCC(=O)N2[C@@H](C)CCC[C@@H]2C)ccc1Cl [Compound 12-142] |
| < 50 nM | Cc1cccc(NC(=O)[C@H](CCN2CCC(O)CC2)NC(=O)[C@@H]2Cc3ccccc3CN2C(=O)CCC(=O)c2ccccc2)c1F [Compound 28-2] |
| 50 to 250 nM | Cc1cc(NC(=O)[C@H](CCN)NC(=O)[C@@H]2Cc3ccccc3CN2C(=O)CCC(=O)NCCC(F)(F)F)ccc1Cl [Compound 12-90] |
| < 50 nM | Cc1cc(NC(=O)[C@H](CCN)NC(=O)[C@@H]2Cc3ccccc3CN2C(=O)CCC(=O)N2CCCCC2C#N)ccc1Cl (some centres unmarked) [Compound 12-84] |
| < 50 nM | Cc1cc(NC(=O)[C@H](CCN)NC(=O)[C@@H]2Cc3ccccc3CN2C(=O)CCC(=O)N2CCCC3(CCC3)C2)ncc1Cl [Compound 12-158] |
| < 50 nM | CC[C@H]1CN(C(=O)CCC(=O)N2Cc3ccccc3C[C@H]2C(=O)N[C@@H](CCN)C(=O)Nc2ccc(Cl)c(C)c2)CCN1C [Compound 12-150] |
| < 50 nM | Cc1cc(NC(=O)[C@H](CCCCN)NC(=O)[C@@H]2Cc3ccccc3CN2C(=O)CCC(=O)c2cccc(C(F)(F)F)c2)ccc1Cl [Compound 7-8] |
| < 50 nM | C[C@H]1CN(C(=O)CCC(=O)N2Cc3ccccc3C[C@H]2C(=O)N[C@@H](CCN)C(=O)Nc2ccc(Cl)c(Cl)c2F)CCN1C [Compound 15-63] |
| < 50 nM | Cc1cc(NC(=O)[C@H](CCN)NC(=O)[C@@H]2Cc3ccccc3CN2C(=O)CCC(=O)N2CCC(F)(F)CC2)ccc1Cl [Compound 12-4] |
| 50 to 250 nM | Cc1cc(NC(=O)[C@H](CCN)NC(=O)[C@@H]2Cc3ccccc3CN2C(=O)CCC(=O)N2CCC(C#N)C2)ccc1Cl (some centres unmarked) [Compound 12-70] |
| 50 to 250 nM | Cc1cc(NC(=O)C(CC2CCN(C)CC2)NC(=O)[C@@H]2Cc3ccccc3CN2C(=O)CCC(=O)c2ccccc2)ccc1Cl (mixture of isomers) [Compound 6-1, (S)—N—((S)-1-((4-chloro-3-methylphenyl)amino)-3-(1-methylpiperidin-4-yl)-1-oxopropan-2-yl)-2-(4-oxo-4-phenylbutanoyl)-1,2,3,4-tetrahydroisoquinoline-3-carboxamide] |
| 50 to 250 nM | Cc1cc(NC(=O)[C@H](CCCCN)NC(=O)[C@@H]2Cc3ccccc3CN2C(=O)CCC(=O)c2cccc(Cl)c2)ccc1Cl [Compound 7-2] |
| < 50 nM | CCC1CCN(C(=O)CCC(=O)N2Cc3ccccc3C[C@H]2C(=O)N[C@@H](CCN)C(=O)Nc2ccc(Cl)c(C)c2)CC1 [Compound 12-61] |
| < 50 nM | CC1(C)COCCN1C(=O)CCC(=O)N1Cc2ccccc2C[C@H]1C(=O)N[C@@H](CCN)C(=O)Nc1ccc(Cl)c(Cl)c1F [Compound 15-11] |
| 250 to 500 nM | CCN(CC)C(=O)CCC(=O)N1Cc2ccccc2C[C@H]1C(=O)N[C@@H](CCN)C(=O)Nc1ccc(Cl)c(Cl)c1F [Compound 15-42] |
| < 50 nM | Cc1cc(NC(=O)[C@H](CCN)NC(=O)[C@@H]2Cc3ccccc3CN2C(=O)CCC(=O)N2CC(C)(c3ccccc3)C2)ccc1Cl [Compound 12-11] |
| > 500 nM | COc1cc(F)ccc1NC(=O)[C@H](CCN)NC(=O)[C@@H]1Cc2ccccc2CN1C(=O)CCC(=O)c1ccccc1 [Compound 13-6] |
| < 50 nM | Cc1cc(NC(=O)[C@H](CCN)NC(=O)[C@@H]2Cc3ccccc3CN2C(=O)CCC(=O)N2CCC(C(C)C)C2)ccc1Cl (some centres unmarked) [Compound 12-74] |
| < 50 nM | Cc1cc(NC(=O)[C@H](CCNS(C)(=O)=O)NC(=O)[C@@H]2Cc3ccccc3CN2C(=O)CCC(=O)N2CCCCC2)ccc1Cl [Compound 32-2] |
| 50 to 250 nM | Cc1cc(NC(=O)[C@H](CCN)NC(=O)[C@@H]2Cc3ccccc3CN2C(=O)CCC(=O)N2CCC(O)C2)ccc1Cl (some centres unmarked) [Compound 12-48] |
| < 50 nM | Cc1cc(NC(=O)[C@H](CCN)NC(=O)[C@@H]2Cc3ccccc3CN2C(=O)CCC(=O)N2CCCC23CCC3)ccc1Cl [Compound 12-73] |
| < 50 nM | CN(C)C(=N)NCCC[C@H](NC(=O)[C@@H]1Cc2ccccc2CN1C(=O)CCC(=O)c1ccccc1)C(=O)Nc1ccc(Cl)c(Cl)c1 [Compound 5-1, (S)—N—((S)-1-((3,4-dichlorophenyl)amino)-5-(3,3-dimethylguanidino)-1-oxopentan-2-yl)-2-(4-oxo-4-phenylbutanoyl)-1,2,3,4-tetrahydroisoquinoline-3-carboxamide] |
| 50 to 250 nM | Cc1cc(NC(=O)[C@H](CCN)NC(=O)[C@@H]2Cc3ccccc3CN2C(=O)CCC(=O)N2CCC(F)(F)C2)ccc1Cl [Compound 12-8] |
| < 50 nM | NCC[C@H](NC(=O)[C@@H]1Cc2ccccc2CN1C(=O)CCC(=O)N1CCC[C@H]1c1ccccc1)C(=O)Nc1ccc(Cl)c(Cl)c1F [Compound 12-149] |
| 50 to 250 nM | Cc1cc(NC(=O)C2(NC(=O)[C@@H]3Cc4ccccc4CN3C(=O)CCC(=O)c3ccccc3)CCN(CCO)CC2)ccc1Cl [Compound 20-1, (S)—N-(4-((4-chloro-3-methylphenyl)carbamoyl)-1-(2-hydroxyethyl)piperidin-4-yl)-2-(4-oxo-4-phenylbutanoyl)-1,2,3,4-tetrahydroisoquinoline-3-carboxamide] |

Reference: patent US11040954B1, “CXCR3 receptor agonists” (RECEPTOS LLC, priority 2016, dated 2021)
